In patent publication US20220144854A1, “MACROCYCLIC COMPOUNDS” (ZENO MANAGEMENT, INC., priority 2019, published 2022):

Test system: NCI-H929 (ATCC CRL-9068) cells
Experiment: NCI-H929 cell proliferation assay (CellTiter-Glo)
Format: cell-based
Conditions: 72 h of compound treatment
Procedure: Cell proliferation was measured using the CellTiter-Glo® Luminescent Cell Viability Assay. The assay involved the addition of a single reagent (CellTiter-Glo® Reagent) directly to cells cultured in serum-supplemented medium.
Each compound evaluated was prepared as a DMSO stock solution (10 mM). Compounds were tested in duplicate on each plate, with a 10-point serial dilution curve (1:3 dilution). Compound treatment ([…]) was added from the compound dilution plate to the cell plate. The highest compound concentration was 10 μM (final), with a 0.1% final DMSO concentration. Plates were then incubated at 37° C., 5% CO2. After 72 h of compound treatment, cell plates were equilibrated at rt for approximately 30 mins. An equi-volume amount of CellTiter-Glo® Reagent (40 μL) was added to each well. Plates were mixed for 2 mins on an orbital shaker to induce cell lysis and then incubated at rt for 10 mins to stabilize the luminescent signal. Luminescence was recorded using an Envision plate reader according to CellTiter-Glo protocol. IC50 of each compound was calculated using GraphPad Prism by nonlinear regression analysis.

IC50 [nM]	Molecule
> 1000	COc1ccc(Cn2nc3c(c2C)-c2c(Cl)ccc4c(c(C(=O)O)n(C)c24)CCCOc2cc(cc4ccccc24)SCc2cc(nn2C(C)C)CSC3)cc1 (single isomer, unassigned) [Example 8A, (Z)-1^6-Chloro-6^1-isopropyl-2^1-(4-methoxybenzyl)-1^1,2^5-dimethyl-1^1H,2^1H,6^1H-10-oxa-4,8-dithia-1(7,3)-indola-2(4,3),6(3,5)-dipyrazola-9(3,1)-naphthalenacyclotridecaphane-1^2-carboxylic acid]
100 to 1000	COc1ccc(Cn2nc3c(c2C)-c2c(Cl)ccc4c(c(C(=O)O)n(C)c24)CCCOc2cc(cc4ccccc24)SCc2cc(nn2C(C)C)CSC3)cc1 (single isomer, unassigned) [Example 8B, (Z)-1^6-Chloro-6^1-isopropyl-2^1-(4-methoxybenzyl)-1^1,2^5-dimethyl-1^1H,2^1H,6^1H-10-oxa-4,8-dithia-1(7,3)-indola-2(4,3),6(3,5)-dipyrazola-9(3,1)-naphthalenacyclotridecaphane-1^2-carboxylic acid]
> 1000	Cc1nn(C)c2c1-c1c(Cl)ccc3c(c(C(=O)O)n(C)c13)CCCOc1cc(cc3ccccc13)SCc1cc(nn1C)CSC2 (single isomer, unassigned) [Example 19A, (Z)-1^6-Chloro-1^1,2^1,2^3,6^1-tetramethyl-1^1H,2^1H,6^1H-10-oxa-4,8-dithia-1(7,3)-indola-2(4,5),6(3,5)-dipyrazola-9(3,1)-naphthalenacyclotridecaphane-1^2-carboxylic acid]
< 100	Cc1nn(C)c2c1-c1c(Cl)ccc3c(c(C(=O)O)n(C)c13)CCCOc1cc(cc3ccccc13)SCc1cc(nn1C)CSC2 (single isomer, unassigned) [Example 19B, (Z)-1^6-Chloro-1^1,2^1,2^3,6^1-tetramethyl-1^1H,2^1H,6^1H-10-oxa-4,8-dithia-1(7,3)-indola-2(4,5),6(3,5)-dipyrazola-9(3,1)-naphthalenacyclotridecaphane-1^2-carboxylic acid]
100 to 1000	Cn1nc2cc1CCc1cc(c3ccccc3c1)OCCCc1c(C(=O)O)n(C)c3c(c(Cl)ccc13)-c1c(nn3c1CCCC3)CNC2 (single isomer, unassigned) [Example 27A, (Z)-1^6-Chloro-1^1,6^1-dimethyl-2^4,2^5,2^6,2^7-tetrahydro-1^1H,6^1H-10-oxa-4-aza-2(3,2)-pyrazolo[1,5-a]pyridina-1(7,3)-indola-6(3,5)-pyrazola-9(3,1)-naphthalenacyclotridecaphane-1^2-carboxylic acid]
> 1000	Cn1nc2cc1CCc1cc(c3ccccc3c1)OCCCc1c(C(=O)O)n(C)c3c(c(Cl)ccc13)-c1c(nn3c1CCCC3)CNC2 (single isomer, unassigned) [Example 27B, (Z)-1^6-Chloro-1^1,6^1-dimethyl-2^4,2^5,2^6,2^7-tetrahydro-1^1H,6^1H-10-oxa-4-aza-2(3,2)-pyrazolo[1,5-a]pyridina-1(7,3)-indola-6(3,5)-pyrazola-9(3,1)-naphthalenacyclotridecaphane-1^2-carboxylic acid]
> 1000	Cc1c2c(nn1C)CSCc1cc([nH]n1)CSc1cc(c3ccccc3c1)OCCCc1c(C(=O)O)n(C)c3c-2c(Cl)ccc13 [Example 11A, (Z)-1^6-Chloro-1^1,2^1,2^5-trimethyl-1^1H,2^1H,6^1H-10-oxa-4,8-dithia-1(7,3)-indola-2(4,3),6(3,5)-dipyrazola-9(3,1)-naphthalenacyclotridecaphane-1^2-carboxylic acid]
100 to 1000	Cc1c2c(nn1C)CSCc1cc(n(C)n1)CSc1cc(c3cc(Cl)ccc3c1)OCCCc1c(C(=O)O)n(C)c3c-2c(Cl)ccc13 [Example 12A, (Z)-1^6,9^7-Dichloro-1^1,2^1,2^5,6^1-tetramethyl-1^1H,2^1H,6^1H-10-oxa-4,8-dithia-1(7,3)-indola-2(4,3),6(3,5)-dipyrazola-9(3,1)-naphthalenacyclotridecaphane-1^2-carboxylic acid]
> 1000	Cc1c2c(nn1C)CSCc1cc(n(C)n1)CSc1cc(c3ccccc3c1)OCCCc1c(C(=O)O)n(C)c3c-2c(Cl)cc(Cl)c13 [Example 13A, (Z)-1^4,1^6-dichloro-1^1,2^1,2^5,6^1-tetramethyl-1^1H,2^1H,6^1H-10-oxa-4,8-dithia-1(7,3)-indola-2(4,3),6(3,5)-dipyrazola-9(3,1)-naphthalenacyclotridecaphane-1^2-carboxylic acid]
> 1000	Cn1nc2cc1CCc1cc(c3ccccc3c1)OCCCc1c(C(=O)O)n(C)c3c(c(Cl)ccc13)-c1c(nn3c1CCC3)CNC2 [Example 26B, (Z)-1^6-chloro-1^1,6^1-dimethyl-2^5,2^6-dihydro-1^1H,2^4H,6^1H-10-oxa-4-aza-1(7,3)-indola-2(3,2)-pyrrolo[1,2-b]pyrazola-6(3,5)-pyrazola-9(3,1)-naphthalenacyclotridecaphane-1^2-carboxylic acid]
100 to 1000	(Z)-1^6-Fluoro-6^1-isobutyl-1^1,2^1,2^3-trimethyl-1^1H,2^1H,6^1H-10-oxa-4,8-dithia-1(7,3)-indola-2(4,5),6(3,5)-dipyrazola-9(3,1)-naphthalenacyclotridecaphane-1^2-carboxylic acid [Example 18B]

Molecule	IC50 [nM]
Cc1nn(C)c2c1-c1c(F)ccc3c(c(C(=O)O)n(C)c13)CCCOc1cc(cc3ccccc13)SCc1cc(nn1C(C)C)CSC2 (single isomer, unassigned) [Example 16B, (Z)-1^6-Fluoro-6^1-isopropyl-1^1,2^1,2^3-trimethyl-1^1H,2^1H,6^1H-10-oxa-4,8-dithia-1(7,3)-indola-2(4,5),6(3,5)-dipyrazola-9(3,1)-naphthalenacyclotridecaphane-1^2-carboxylic acid]	> 1000
Cc1nn(C)c2c1-c1c(F)ccc3c(c(C(=O)O)n(C)c13)CCCOc1cc(cc3ccccc13)SCc1cc(nn1CC(C)C)CSC2 (single isomer, unassigned) [Example 17B, (Z)-1^6-Fluoro-6^1-isobutyl-1^1,2^1,2^3-trimethyl-1^1H,2^1H,6^1H-10-oxa-4,8-dithia-1(7,3)-indola-2(4,5),6(3,5)-dipyrazola-9(3,1)-naphthalenacyclotridecaphane-1^2-carboxylic acid]	100 to 1000
Cc1c2c(nn1C)CSCc1cc(n(C)n1)CSc1cc(c3ccccc3c1)OCCCc1c(C(=O)O)n(C)c3c-2c(F)ccc13 [Example 14B, (Z)-1^6-Fluoro-1^1,2^1,2^5,6^1-tetramethyl-1^1H,2^1H,6^1H-10-oxa-4,8-dithia-1(7,3)-indola-2(4,3),6(3,5)-dipyrazola-9(3,1)-naphthalenacyclotridecaphane-1^2-carboxylic acid]	> 1000

Same assay, conditions: Homo sapiens, NCI-H929, 72 h, 72 h of compound treatment

IC50 [nM]	Molecule
100 to 1000	CO[C@H]1/C=C/C[C@H](C)[C@@H](C)S(=O)(=O)NC(=O)c2ccc3c(c2)N(C[C@@H]2CC[C@H]21)C[C@@]1(CCCc2cc(Cl)ccc21)CO3 [AMG176, reference compound]
< 100	Cc1c2c(nn1C)CSCc1cc(n(C)n1)CSc1cc(c3ccccc3c1)OCCCc1c(C(=O)O)n(C)c3c-2c(Cl)ccc13 [AZD5991, reference compound]
100 to 1000	Cn1nc2cc1CSc1cc(c3ccccc3c1)OCCCc1c(C(=O)O)n(C)c3c(c(Cl)ccc13)-c1c(nn3c1CNCC3)CSC2 [Example 23B, (Z)-1^6-Chloro-1^1,6^1-dimethyl-2^4,2^5,2^6,2^7-tetrahydro-1^1H,6^1H-10-oxa-4,8-dithia-2(3,2)-pyrazolo[1,5-a]pyrazina-1(7,3)-indola-6(3,5)-pyrazola-9(3,1)-naphthalenacyclotridecaphane-1^2-carboxylic acid]
100 to 1000	CC(=O)N1CCn2nc3c(c2C1)-c1c(Cl)ccc2c(c(C(=O)O)n(C)c12)CCCOc1cc(cc2ccccc12)SCc1cc(nn1C)CSC3 [Example 24A, (Z)-2^5-Acetyl-1^6-chloro-1^1,6^1-dimethyl-2^4,2^5,2^6,2^7-tetrahydro-1^1H,6^1H-10-oxa-4,8-dithia-2(3,2)-pyrazolo[1,5-a]pyrazina-1(7,3)-indola-6(3,5)-pyrazola-9(3,1)-naphthalenacyclotridecaphane-1^2-carboxylic acid]
100 to 1000	CN1CCn2nc3c(c2C1)-c1c(Cl)ccc2c(c(C(=O)O)n(C)c12)CCCOc1cc(cc2ccccc12)SCc1cc(nn1C)CSC3 [Example 25A, (Z)-1^6-chloro-1^1,2^5,6^1-trimethyl-2^4,2^5,2^6,2^7-tetrahydro-1^1H,6^1H-10-oxa-4,8-dithia-2(3,2)-pyrazolo[1,5-a]pyrazina-1(7,3)-indola-6(3,5)-pyrazola-9(3,1)-naphthalenacyclotridecaphane-1^2-carboxylic acid]
100 to 1000	Cn1nc2cc1CSc1cc(c3ccccc3c1)OCCCc1c(C(=O)O)n(C)c3c(c(Cl)ccc13)-c1c(nn3c1CCC3)CNC2 [Example 26A]

Molecule	IC50 [nM]
Cc1[nH]nc2c1-c1c(Cl)ccc3c(c(C(=O)O)n(C)c13)CCCOc1cc(cc3ccccc13)SCc1cc(nn1C(C)C)CSC2 [Example 9B, (Z)-1^6-Chloro-6^1-isopropyl-1^1,2^5-dimethyl-1^1H,2^1H,6^1H-10-oxa-4,8-dithia-1(7,3)-indola-2(4,3),6(3,5)-dipyrazola-9(3,1)-naphthalenacyclotridecaphane-1^2-carboxylic acid]	> 1000
Cc1nn(C23CC(C2)C3)c2c1-c1c(Cl)ccc3c(c(C(=O)O)n(C)c13)CCCOc1cc(cc3ccccc13)SCc1cc(n[nH]1)CSC2 [Example 21A, (Z)-2^1-(Bicyclo[1.1.1]pentan-1-yl)-1^6-chloro-1^1,2^3-dimethyl-1^1H,2^1H,6^1H-10-oxa-4,8-dithia-1(7,3)-indola-2(4,5),6(3,5)-dipyrazola-9(3,1)-naphthalenacyclotridecaphane-1^2-carboxylic acid]	> 1000
